Measurements as given in US7229630B2, “Stabilized formulations of alpha adrenergic receptor antagonists and the uses thereof” (Novalar Pharmaceuticals, Inc., priority 2002, dated 2007).
Structures can show the parent of a compound that is named as a salt.

What was measured:
[1] = Effect of buffer anion on stability at 60° C. (HPLC); assay type: physicochemical
Procedure: (§1) The drug is monitored at a detection wavelength of 232 nm.
Tightly sealed glass vials containing the test solutions were placed in an oven at 40° C. or 60° C. All samples were stored in the dark. Aliquots were removed at designated time points for HPLC analysis and pH measurement. All samples were analyzed without dilution.
The test buffers included 50 mM sodium phosphate, 50 mM sodium acetate, 50 mM sodium lactate, 50 mM sodium citrate, and 50 mM sodium succinate buffers at pH 3.
The phosphate and acetate buffers were prepared as described above. The citrate buffer was prepared by adding 9.60 g of citric acid to water, adjusting the pH with 2 N NaOH to pH 3, and bringing the volume to 1 L in a volumetric flask. The lactate buffer was prepared by adding 2.25 g of lactic acid to water, adjusting the pH with 2 N NaOH to pH 3, and bringing the volume to 1 L in a volumetric flask. The succinate buffer was prepared by adding 2.95 g succinic acid to water, adjusting the pH with 2 N NaOH to pH 3, and bringing the volume to 1 L in a volumetric flask.
Measurements of sample pH were done after HPLC analysis.

[2] = Effect of additives on stability at 60° C. (HPLC); assay type: physicochemical; details: for Rate Constant: zero-order
Description: as §1
The additives in this study are selected from five groups of injectable excipients namely, tonicity modifiers (NaCl and d-mannitol), metal chelators (EDTA), antioxidants (sodium metabisulfite), complexing agents (α-cyclodextrin and niacinamide) and solvents (glycerol and polypropylene glycol). A tonicity modifier is required for adjusting the phentolamine mesylate solution to isotonic. […] Complexing agents were applied in the hope that a possible formation of an inclusion complex (by α-cyclodextrin) or stacking complex (by niacinamide) with phentolamine would modify the rate of hydrolytic degradation of the drug substance. Solvents were added to reduce the dielectric constant of the vehicle and were intended to slow the rate of degradation due to solvent polarity.
The pH value of the solutions was readjusted to pH 3.5, as required.
The 25% glycerol (25 g in 100 ml total volume with water) and 25% polypropylene glycol (25 g in 100 ml total volume with water) solutions had their buffer strength adjusted by addition of acetic acid followed by addition of 2 N NaOH for pH adjustment to pH 3.5 followed by addition of the drug to 0.1 mg/ml.
All samples were placed in 10 ml glass serum vials, stoppered with rubber closures with an inert coating (Daikyo Flurotec by WEST Pharmaceutical), and sealed with flip-top caps after sampling. Vials were placed at 60° C. after the weights were recorded.
Sampling occurred at the initial time point and on days 2, 7, and 14. Vials were weighed, sampled, sealed, re-weighed, and replaced under the selected storage condition until testing at the subsequent time point. Records indicate no significant weight loss during storage.

[3] = 50 mM sodium Acetate pH 3.0, 60° C., Day 0
[4] = 50 mM sodium Acetate pH 3.0, 60° C., Day 2
[5] = 50 mM sodium Acetate pH 3.0, 60° C., Day 7
[6] = 50 mM sodium Acetate pH 3.0, 60° C., Day 14
[7] = 50 mM sodium Citrate pH 3.0, 60° C., Day 0
[8] = 50 mM sodium Citrate pH 3.0, 60° C., Day 2
[9] = 50 mM sodium Citrate pH 3.0, 60° C., Day 7
[10] = 50 mM sodium Citrate pH 3.0, 60° C., Day 14
[11] = 50 mM sodium Lactate pH 3.0, 60° C., Day 0
[12] = 50 mM sodium Lactate pH 3.0, 60° C., Day 2
[13] = 50 mM sodium Lactate pH 3.0, 60° C., Day 7
[14] = 50 mM sodium Lactate pH 3.0, 60° C., Day 14
[15] = 50 mM sodium Phosphate pH 3.0, 60° C., Day 0
[16] = 50 mM sodium Phosphate pH 3.0, 60° C., Day 2
[17] = 50 mM sodium Phosphate pH 3.0, 60° C., Day 7
[18] = 50 mM sodium Phosphate pH 3.0, 60° C., Day 14
[19] = 50 mM sodium Succinate pH 3.0, 60° C., Day 0
[20] = 50 mM sodium Succinate pH 3.0, 60° C., Day 2
[21] = 50 mM sodium Succinate pH 3.0, 60° C., Day 7
[22] = 50 mM sodium Succinate pH 3.0, 60° C., Day 14
[23] = EDTA 0.7 mg/ml, sodium acetate pH 3.5, 60° C., Day 14
[24] = Glycerol 25% w/v, sodium acetate pH 3.5, 60° C., Day 7
[25] = NaCl 50 mg/ml, sodium acetate pH 3.5, 60° C., Day 0
[26] = NaCl 50 mg/ml, sodium acetate pH 3.5, 60° C., Day 2
[27] = NaCl 50 mg/ml, sodium acetate pH 3.5, 60° C., Day 7
[28] = NaCl 50 mg/ml, sodium acetate pH 3.5, 60° C., Day 14
[29] = Niacinamide 50 mg/ml, sodium acetate pH 3.5, 60° C., Day 0
[30] = Niacinamide 50 mg/ml, sodium acetate pH 3.5, 60° C., Day 2
[31] = Niacinamide 50 mg/ml, sodium acetate pH 3.5, 60° C., Day 7
[32] = Niacinamide 50 mg/ml, sodium acetate pH 3.5, 60° C., Day 14
[33] = No additive, pH 3.5, 60° C., Day 0
[34] = No additive, pH 3.5, 60° C., Day 2
[35] = No additive, pH 3.5, 60° C., Day 7
[36] = No additive, pH 3.5, 60° C., Day 14
[37] = Sodium metabisulfite 0.5 mg/ml, sodium acetate pH 3.5, 60° C., Day 0
[38] = Sodium metabisulfite 0.5 mg/ml, sodium acetate pH 3.5, 60° C., Day 7
[39] = Sodium metabisulfite 0.5 mg/ml, sodium acetate pH 3.5, 60° C., Day 14
[40] = d-Mannitol 40 mg/ml, sodium acetate pH 3.5, 60° C., Day 0
[41] = d-Mannitol 40 mg/ml, sodium acetate pH 3.5, 60° C., Day 2
[42] = d-Mannitol 40 mg/ml, sodium acetate pH 3.5, 60° C., Day 7
[43] = d-Mannitol 40 mg/ml, sodium acetate pH 3.5, 60° C., Day 14

Phentolamine Concentration [1, 3]: 96 µg/mL
Phentolamine Purity [1, 3]: 100 % peak area
Phentolamine Concentration [1, 4]: 95 µg/mL
Phentolamine Purity [1, 4]: 98 % peak area
Phentolamine Concentration [1, 5]: 94 µg/mL
Phentolamine Purity [1, 5]: 97 % peak area
Phentolamine Concentration [1, 6]: 89 µg/mL
Phentolamine Purity [1, 6]: 96 % peak area
Phentolamine Concentration [1, 7]: 93 µg/mL
Phentolamine Purity [1, 7]: 97 % peak area
Phentolamine Concentration [1, 8]: 87 µg/mL
Phentolamine Purity [1, 8]: 91 % peak area
Phentolamine Concentration [1, 9]: 73 µg/mL
Phentolamine Purity [1, 9]: 77 % peak area
Phentolamine Concentration [1, 10]: 62 µg/mL
Phentolamine Purity [1, 10]: 69 % peak area
Phentolamine Concentration [1, 11]: 97 µg/mL
Phentolamine Purity [1, 11]: 99 % peak area
Phentolamine Concentration [1, 12]: 94 µg/mL
Phentolamine Purity [1, 12]: 98 % peak area
Phentolamine Concentration [1, 13]: 91 µg/mL
Phentolamine Purity [1, 13]: 94 % peak area
Phentolamine Concentration [1, 14]: 83 µg/mL
Phentolamine Purity [1, 14]: 89 % peak area
Phentolamine Concentration [1, 15]: 96 µg/mL
Phentolamine Purity [1, 15]: 99 % peak area
Phentolamine Concentration [1, 16]: 93 µg/mL
Phentolamine Purity [1, 16]: 97 % peak area
Phentolamine Concentration [1, 17]: 91 µg/mL
Phentolamine Purity [1, 17]: 95 % peak area
Phentolamine Concentration [1, 18]: 84 µg/mL
Phentolamine Purity [1, 18]: 91 % peak area
Phentolamine Concentration [1, 19]: 96 µg/mL
Phentolamine Purity [1, 19]: 99 % peak area
Phentolamine Concentration [1, 20]: 88 µg/mL
Phentolamine Purity [1, 20]: 92 % peak area
Phentolamine Concentration [1, 21]: 74 µg/mL
Phentolamine Purity [1, 21]: 78 % peak area
Phentolamine Concentration [1, 22]: 64 µg/mL
Phentolamine Purity [1, 22]: 74 % peak area
Phentolamine Purity ([2]; EDTA 0.7 mg/ml, sodium acetate pH 3.5, 60° C., Day 0): 99 % Peak Area
Phentolamine Purity ([2]; EDTA 0.7 mg/ml, sodium acetate pH 3.5, 60° C., Day 2): 99 % Peak Area
Phentolamine Purity ([2]; EDTA 0.7 mg/ml, sodium acetate pH 3.5, 60° C., Day 7): 99 % Peak Area
Phentolamine Concentration [2, 23]: 99 µg/mL
Phentolamine Purity [2, 23]: 98 % Peak Area
Phentolamine Purity ([2]; Glycerol 25% w/v, sodium acetate pH 3.5, 60° C., Day 0): 98 % Peak Area
Phentolamine Purity ([2]; Glycerol 25% w/v, sodium acetate pH 3.5, 60° C., Day 2): 98 % Peak Area
Phentolamine Concentration [2, 24]: 120 µg/mL
Phentolamine Purity [2, 24]: 93 % Peak Area
Phentolamine Purity ([2]; Glycerol 25% w/v, sodium acetate pH 3.5, 60° C., Day 14): 94 % Peak Area
Phentolamine Concentration [2, 25]: 94 µg/mL
Phentolamine Purity [2, 25]: 94 % Peak Area
Phentolamine Concentration [2, 26]: 98 µg/mL
Phentolamine Purity [2, 26]: 99 % Peak Area
Phentolamine Concentration [2, 27]: 80 µg/mL
Phentolamine Purity [2, 27]: 89 % Peak Area
Phentolamine Concentration [2, 28]: 74 µg/mL
Phentolamine Purity [2, 28]: 85 % Peak Area
Phentolamine Concentration [2, 29]: 90 µg/mL
Phentolamine Purity [2, 29]: 99 % Peak Area
Phentolamine Concentration [2, 30]: 90 µg/mL
Phentolamine Purity [2, 30]: 100 % Peak Area
Phentolamine Concentration [2, 31]: 78 µg/mL
Phentolamine Purity [2, 31]: 93 % Peak Area
Phentolamine Concentration [2, 32]: 92 µg/mL
Phentolamine Purity [2, 32]: 90 % Peak Area
Phentolamine Concentration [2, 33]: 90 µg/mL
Phentolamine Purity [2, 33]: 99 % Peak Area
Phentolamine Concentration [2, 34]: 92 µg/mL
Phentolamine Purity [2, 34]: 98 % Peak Area
Phentolamine Concentration [2, 35]: 82 µg/mL
Phentolamine Purity [2, 35]: 98 % Peak Area
Phentolamine Concentration [2, 36]: 77 µg/mL
Phentolamine Purity [2, 36]: 97 % Peak Area
Phentolamine Purity ([2]; Polypropylene glycol 25% w/v, sodium acetate pH 3.5, 60° C., Day 0): 93 % Peak Area
Phentolamine Purity ([2]; Polypropylene glycol 25% w/v, sodium acetate pH 3.5, 60° C., Day 2): 97 % Peak Area
Phentolamine Purity ([2]; Polypropylene glycol 25% w/v, sodium acetate pH 3.5, 60° C., Day 7): 93 % Peak Area
Phentolamine Purity ([2]; Polypropylene glycol 25% w/v, sodium acetate pH 3.5, 60° C., Day 14): 90 % Peak Area
Phentolamine Concentration [2, 37]: 97 µg/mL
Phentolamine Purity [2, 37]: 97 % Peak Area
Phentolamine Purity ([2]; Sodium metabisulfite 0.5 mg/ml, sodium acetate pH 3.5, 60° C., Day 2): 99 % Peak Area
Phentolamine Concentration [2, 38]: 84 µg/mL
Phentolamine Purity [2, 38]: 95 % Peak Area
Phentolamine Concentration [2, 39]: 74 µg/mL
Phentolamine Purity [2, 39]: 92 % Peak Area
Phentolamine Concentration [2, 40]: 98 µg/mL
Phentolamine Purity [2, 40]: 96 % Peak Area
Phentolamine Concentration [2, 41]: 96 µg/mL
Phentolamine Purity [2, 41]: 97 % Peak Area
Phentolamine Concentration [2, 42]: 98 µg/mL
Phentolamine Purity [2, 42]: 96 % Peak Area
Phentolamine Concentration [2, 43]: 91 µg/mL
Phentolamine Purity [2, 43]: 97 % Peak Area
impact of additive on stability ([2]; d-Mannitol and disodium EDTA, based on the rate constant, 60° C.): improve stability
impact of additive on recovery vs no-additive control ([2]; sodium metabisulfite, NaCl, glycerol, polypropylene glycol and niacinamide, 60° C.): negative impact on the recovery
Phentolamine Purity ([2]; α-Cyclodextran 50 mg/ml, sodium acetate pH 3.5, 60° C., Day 0): 98 % Peak Area
Phentolamine Purity ([2]; α-Cyclodextran 50 mg/ml, sodium acetate pH 3.5, 60° C., Day 2): 99 % Peak Area
Phentolamine Purity ([2]; α-Cyclodextran 50 mg/ml, sodium acetate pH 3.5, 60° C., Day 7): 98 % Peak Area
Phentolamine Purity ([2]; α-Cyclodextran 50 mg/ml, sodium acetate pH 3.5, 60° C., Day 14): 98 % Peak Area
Phentolamine Concentration ([2]; α-Cyclodextrin 50 mg/ml, sodium acetate pH 3.5, 60° C., Day 2): 99 µg/mL
Phentolamine Concentration ([2]; α-Cyclodextrin 50 mg/ml, sodium acetate pH 3.5, 60° C., Day 7): 96 µg/mL
Phentolamine Concentration ([2]; α-Cyclodextrin 50 mg/ml, sodium acetate pH 3.5, 60° C., Day 14): 94 µg/mL
impact of additive on stability ([2]; α-cyclodextrin, based on purity value, 60° C.): negligible
SMILES: Cc1ccc(N(CC2=NCCN2)c2cccc(O)c2)cc1 [Phentolamine Mesylate, phentolamine mesylate]
rank of buffer preference based on the amount of phentolamine recovered at the end of the study ([1]; pH 3, 60° C., 14 days): sodium acetate>no buffer (water with pH adjusted to pH 3)>sodium phosphate>sodium lactate>sodium succinate>sodium citrate
Rate Constant ([2]; EDTA 0.7 mg/ml, sodium acetate pH 3.5, 60° C.): 0.438 µg/mL/day
Rate Constant ([2]; Glycerol 25% w/v, sodium acetate pH 3.5, 60° C.): 0.726 µg/mL/day
Rate Constant ([2]; NaCl 50 mg/ml, sodium acetate pH 3.5, 60° C.): 1.663 µg/mL/day
Rate Constant ([2]; Niacinamide 50 mg/ml, sodium acetate pH 3.5, 60° C.): -0.026 µg/mL/day
Rate Constant ([2]; No additive, pH 3.5, 60° C.): 1.027 µg/mL/day
Rate Constant ([2]; Polypropylene glycol 25% w/v, sodium acetate pH 3.5, 60° C.): 1.019 µg/mL/day
Rate Constant ([2]; Sodium metabisulfite 0.5 mg/ml, sodium acetate pH 3.5, 60° C.): 1.903 µg/mL/day
Rate Constant ([2]; d-Mannitol 40 mg/ml, sodium acetate pH 3.5, 60° C.): 0.416 µg/mL/day
Rate Constant ([2]; α-Cyclodextrin 50 mg/ml, sodium acetate pH 3.5, 60° C.): 0.501 µg/mL/day
